pEC50, pIC50: −log10 of the molar value.
Legend:
[1] = biological target: human full length PIK3CA Wild-type (p110α/p85α complex) (Homo sapiens (Human), UniProt P42336); experiment: PI3K-Alpha kinase (PIK3CA) activity, wild-type, Transcreener ADP2 FI assay; settings: PI3K-α (PIK3CA) wild-type, biochemical
Description: (§1) PI3K-Alpha kinase (PIK3CA) activity, wild-type and H1047R mutant and determining IC50 values for inhibitors
(§2) Recombinant, catalytically active human full length PIK3KA Wild-type and H1047R mutant were purchased as 1:1 complex of N-terminal 6×his tagged p110<(catalytic) and untagged p85<(regulatory subunit) from EMD Millipore Sigma (cat. no. 14-602M and 14-792M, respectively). The enzyme stocks were diluted to 5× stocks in buffer (20 mM HEPES pH 7.4, 100 mM NaCl, 0.5 mM EGTA, 0.01% triton-x-100) just before use. PIP2diC8 (Avanti Polar Lipids Inc., cat. no. 850185) or phosphoinositol-4,5-bisphosphate with phosphoserine (PIP2:PS) membrane (Thermo Fisher Scientific, cat. no. PV5100) was used as lipid substrates. PIP2diC8 lyophilized powder and PIP2:PS (1:19) membrane stock (1 mM in PIP2) were separately dissolved in milliQ water to a concentration of 250 uM and stored in −20° C. 10 mM stocks of compounds were serially diluted (3×) in neat DMSO and stored in a dessicator at room temperature. 5× compound stocks in 25% DMSO were prepared fresh from neat DMSO stocks. Wild-type (WT) and H1047R mutant protein, along with buffer components (except ATP), were incubated with or without compound at 27° C. for 1h. After incubation, the reaction was initiated by the addition of 5 uL of 125 uM ATP. A typical assay mixture (25 uL) comprised 40 mM HEPES buffer, pH 7.4, 25 mM MgCl2, 0.01% v/v triton-X-100, 5% v/v DMSO, 20 mM NaCl, 1-5 nM wt or H1047R, 25 uM ATP, and 50 uM PTP2diC8 or PTP2 in membrane. The reaction was allowed to proceed until about […] (2.5 uM ADP) after which time, 10 uL of reaction mixture was quenched with 25 uL of transcreener reagent (Transcreener ADP2 FI assay kit, BellBrook labs, Cat. No. 3013). The contents were incubated at rt for 1h and fluorescence was measured using a plate reader (Paradigm, Molecular Devices). The same assay was also run at pH 6.0 or 6.4 using MOPS buffer (Fisher BioReagents, CAS 1132-61-2). A calibration curve was generated under identical buffer conditions with varying ADP amounts. Using that, the observed fluorescence was converted to uM ADP. A plot between [ADP] and log[I] yielded the dose-response curves that enabled the calculation of IC50s.

[2] = biological target: human full length PIK3CA H1047R mutant (p110α/p85α complex) (Homo sapiens (Human), UniProt P42336, H1047R); experiment: PI3K-Alpha kinase (PIK3CA) activity, H1047R mutant, Transcreener ADP2 FI assay; settings: PI3K-α (PIK3CA) H1047R mutant, biochemical
Description: as §1, §2

T-47D = experiment: Cellular Assay T-47D; type: cell-based; settings: Homo sapiens, T47D; T-47D cells

Sequence of human full length PIK3CA Wild-type (p110α/p85α complex) (P42336 whole entry): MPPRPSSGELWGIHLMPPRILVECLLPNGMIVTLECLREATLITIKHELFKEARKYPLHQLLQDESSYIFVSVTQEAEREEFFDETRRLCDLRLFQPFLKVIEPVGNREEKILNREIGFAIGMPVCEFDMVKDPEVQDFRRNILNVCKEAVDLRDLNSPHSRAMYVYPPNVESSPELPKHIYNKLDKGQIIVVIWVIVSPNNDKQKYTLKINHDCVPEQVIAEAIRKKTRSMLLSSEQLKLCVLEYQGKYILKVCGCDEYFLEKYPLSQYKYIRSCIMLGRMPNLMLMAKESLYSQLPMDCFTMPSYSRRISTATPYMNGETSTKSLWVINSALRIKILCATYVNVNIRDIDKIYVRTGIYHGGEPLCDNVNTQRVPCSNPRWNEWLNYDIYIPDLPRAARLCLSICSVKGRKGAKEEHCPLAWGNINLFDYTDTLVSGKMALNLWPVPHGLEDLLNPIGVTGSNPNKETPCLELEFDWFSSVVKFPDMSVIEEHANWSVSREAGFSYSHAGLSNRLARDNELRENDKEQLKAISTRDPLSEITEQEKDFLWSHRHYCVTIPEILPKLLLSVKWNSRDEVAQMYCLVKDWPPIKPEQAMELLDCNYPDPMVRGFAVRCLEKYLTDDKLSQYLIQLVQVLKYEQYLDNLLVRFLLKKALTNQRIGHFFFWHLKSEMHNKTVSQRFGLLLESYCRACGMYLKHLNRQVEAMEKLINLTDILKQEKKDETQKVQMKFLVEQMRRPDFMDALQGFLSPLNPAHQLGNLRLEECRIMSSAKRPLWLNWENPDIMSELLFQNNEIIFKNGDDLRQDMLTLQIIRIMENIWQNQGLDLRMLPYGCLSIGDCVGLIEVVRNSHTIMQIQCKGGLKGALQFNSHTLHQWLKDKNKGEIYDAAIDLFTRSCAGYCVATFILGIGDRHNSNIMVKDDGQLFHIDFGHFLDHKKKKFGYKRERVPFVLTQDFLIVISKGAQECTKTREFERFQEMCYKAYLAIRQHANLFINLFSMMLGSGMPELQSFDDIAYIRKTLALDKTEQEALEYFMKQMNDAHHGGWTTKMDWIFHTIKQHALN
Sequence of human full length PIK3CA Wild-type (p110α/p85α complex) (P27986 whole entry partner): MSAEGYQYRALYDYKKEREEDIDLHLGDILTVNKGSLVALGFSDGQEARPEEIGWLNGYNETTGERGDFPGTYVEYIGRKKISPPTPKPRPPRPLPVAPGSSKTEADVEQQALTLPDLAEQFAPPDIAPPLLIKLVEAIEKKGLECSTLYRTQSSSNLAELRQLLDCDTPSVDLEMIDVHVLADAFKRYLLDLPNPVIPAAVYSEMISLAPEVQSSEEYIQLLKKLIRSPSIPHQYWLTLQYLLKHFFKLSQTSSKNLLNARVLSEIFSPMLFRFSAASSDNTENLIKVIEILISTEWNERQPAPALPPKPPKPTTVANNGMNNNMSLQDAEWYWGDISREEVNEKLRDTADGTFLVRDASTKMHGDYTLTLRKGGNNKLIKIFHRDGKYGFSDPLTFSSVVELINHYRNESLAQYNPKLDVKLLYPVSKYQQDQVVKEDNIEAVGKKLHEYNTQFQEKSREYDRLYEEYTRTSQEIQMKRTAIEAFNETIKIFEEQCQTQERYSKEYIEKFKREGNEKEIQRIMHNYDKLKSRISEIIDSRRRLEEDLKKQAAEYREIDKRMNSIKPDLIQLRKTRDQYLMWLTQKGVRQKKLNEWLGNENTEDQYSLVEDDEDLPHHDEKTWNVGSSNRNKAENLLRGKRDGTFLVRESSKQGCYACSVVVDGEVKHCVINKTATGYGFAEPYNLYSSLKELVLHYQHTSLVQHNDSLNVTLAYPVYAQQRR
Sequence of human full length PIK3CA H1047R mutant (p110α/p85α complex) (P42336 whole entry H1047R): as the sequence (P42336 whole entry) above, with H1047R counted along it
Sequence of human full length PIK3CA H1047R mutant (p110α/p85α complex) (P27986 whole entry partner): as the sequence (P27986 whole entry partner) above

| pIC50 [1] | pIC50 [2] | pEC50 (T-47D) | Compound |
| --- | --- | --- | --- |
| > 6.30 | > 6.30 |  | Cc1cc(C(C)Nc2ccc(F)cc2C(=O)O)c2oc(N3Cc4ccc(F)cc4C3)cc(=O)c2c1 (single isomer, unassigned) [Example 349, 5-Fluoro-2-[1-[2-(5-fluoroisoindolin-2-yl)-6-methyl-4-oxo-chromen-8-yl]ethylamino]benzoic acid] |
|  |  | > 6.00 | Cc1cc(C(C)Nc2ccccc2C(=O)O)c2oc(N3CCC(C)(C)CC3)c(C)c(=O)c2c1 (single isomer, unassigned) [Example 358, 2-[1-[2-(4,4-Dimethyl-1-piperidyl)-3,6-dimethyl-4-oxo-chromen-8-yl]ethylamino]benzoic acid] |
| 6.00 to 6.30 | > 6.30 |  | Cc1cc(C(C)Nc2ccccc2C(=O)O)c2oc(N3Cc4ccccc4C3)cc(=O)c2c1 (single isomer, unassigned) [Example 362, 2-[1-(2-Isoindolin-2-yl-6-methyl-4-oxo-chromen-8-yl)ethylamino]benzoic acid] |
| 5.30 to 6.00 | > 6.30 |  | Cc1cc(C(C)Nc2ccccc2C(=O)O)c2oc(N3Cc4ccccc4C3)c(C)c(=O)c2c1 (single isomer, unassigned; isomer 1) [Example 265, 2-[1-(2-Isoindolin-2-yl-3,6-dimethyl-4-oxo-chromen-8-yl)ethylamino]benzoic acid, Isomer 1] |
| > 6.30 | > 6.30 |  | CC(Nc1ccccc1C(=O)O)c1cc(C(F)(F)F)cc2c(=O)cc(N3Cc4ccc(C#N)cc4C3)oc12 (single isomer, unassigned; isomer 2) [Example 338, 2-[1-[2-(5-Cyanoisoindolin-2-yl)-4-oxo-6-(trifluoromethyl)chromen-8-yl]ethylamino]benzoic acid, Isomer 2] |
| 5.30 to 6.00 | 5.30 to 6.00 |  | Cc1cc(C(C)Nc2ccccc2S(=O)(=O)O)c2oc(N3CCC(C)(C)CC3)cc(=O)c2c1 (stereo not shown) [Example 4, 2-[1-[2-(4,4-Dimethyl-1-piperidyl)-6-methyl-4-oxo-chromen-8-yl]ethylamino]benzenesulfonic acid] |
|  |  | 5.30 to 6.00 | Cc1cc(C(C)Nc2ccc(C#N)cc2C(=O)O)c2oc(N3CCC(C)(C)CC3)cc(=O)c2c1 (stereo not shown) [Example 6, 5-Cyano-2-[1-[2-(4,4-dimethyl-1-piperidyl)-6-methyl-4-oxo-chromen-8-yl]ethylamino]benzoic acid] |
|  |  | 4.82 to 5.30 | Cc1cc(C(C)Nc2ccc(Br)cc2C(=O)O)c2oc(N3CCC(C)(C)CC3)cc(=O)c2c1 (stereo not shown) [Example 7, 5-Bromo-2-[1-[2-(4,4-dimethyl-1-piperidyl)-6-methyl-4-oxo-chromen-8-yl]ethylamino]benzoic acid] |
|  |  | 4.62 to 4.82 | Cc1cc(C(C)Nc2cc(Cl)ccc2C(=O)O)c2oc(N3CCC(C)(C)CC3)cc(=O)c2c1 (stereo not shown) [Example 10, 4-Chloro-2-[1-[2-(4,4-dimethyl-1-piperidyl)-6-methyl-4-oxo-chromen-8-yl]ethylamino]benzoic acid] |
|  |  | 4.62 to 4.82 | Cc1cc(C(C)Nc2c(Cl)cccc2C(=O)O)c2oc(N3CCC(C)(C)CC3)cc(=O)c2c1 (stereo not shown) [Example 11, 3-Chloro-2-[1-[2-(4,4-dimethyl-1-piperidyl)-6-methyl-4-oxo-chromen-8-yl]ethylamino]benzoic acid] |
|  |  | < 4.62 | Cc1cc(C(C)Nc2cc(C)c(C)cc2C(=O)O)c2oc(N3CCC(C)(C)CC3)cc(=O)c2c1 (stereo not shown) [Example 12, 2-[1-[2-(4,4-Dimethyl-1-piperidyl)-6-methyl-4-oxo-chromen-8-yl]ethylamino]-4,5-dimethyl-benzoic acid] |
| 5.30 to 6.00 | 5.30 to 6.00 |  | Cc1cc(C(C)Nc2cccc3c2C(=O)NC3)c2oc(N3CCC(C)(C)CC3)cc(=O)c2c1 (stereo not shown) [Example 29, 7-[1-[2-(4,4-Dimethyl-1-piperidyl)-6-methyl-4-oxo-chromen-8-yl]ethylamino]isoindolin-1-one] |
| 6.00 to 6.30 | 6.00 to 6.30 |  | Cc1cc(C(C)Nc2ccccc2S(=O)(=O)C(F)F)c2oc(N3CCC(C)(C)CC3)cc(=O)c2c1 (stereo not shown) [Example 38, 8-[1-[2-(Difluoromethylsulfonyl)anilino]ethyl]-2-(4,4-dimethyl-1-piperidyl)-6-methyl-chromen-4-one] |
| 5.30 to 6.00 | 6.00 to 6.30 |  | Cc1cc(C(C)Nc2ccccc2-c2noc(=O)[nH]2)c2oc(N3CCC(C)(C)CC3)cc(=O)c2c1 (stereo not shown) [Example 45, 3-[2-[1-[2-(4,4-Dimethyl-1-piperidyl)-6-methyl-4-oxo-chromen-8-yl]ethylamino]phenyl]-4H-1,2,4-oxadiazol-5-one] |
| 5.30 to 6.00 | 6.00 to 6.30 |  | Cc1cc(C(C)Nc2cccc3cc(C(=O)O)sc23)c2oc(N3CCC(C)(C)CC3)cc(=O)c2c1 (stereo not shown) [Example 46, 7-[1-[2-(4,4-Dimethyl-1-piperidyl)-6-methyl-4-oxo-chromen-8-yl]ethylamino]benzothiophene-2-carboxylic acid] |
| 5.30 to 6.00 | 6.00 to 6.30 |  | Cc1cc(C(C)Nc2ccc(C3CC3)nc2C(=O)O)c2oc(N3CCC(C)(C)CC3)cc(=O)c2c1 (stereo not shown) [Example 50, 6-Cyclopropyl-3-[1-[2-(4,4-dimethyl-1-piperidyl)-6-methyl-4-oxo-chromen-8-yl]ethylamino]pyridine-2-carboxylic acid] |
| 5.30 to 6.00 | 6.00 to 6.30 |  | CC(Nc1ccccc1C(=O)O)c1cc(C(F)(F)F)cc2c(=O)cc(N3CCC(C)(C)CC3)oc12 (stereo not shown) [Example 57, 2-[1-[2-(4,4-dimethyl-1-piperidyl)-4-oxo-6-(trifluoromethyl)chromen-8-yl]ethylamino]benzoic acid] |
| 5.00 to 5.30 | 6.00 to 6.30 |  | Cc1cc(C(C)Nc2ccccc2C(=O)O)c2oc(N3CCC(C(F)(F)F)CC3)cc(=O)c2c1 (stereo not shown) [Example 74, 2-[1-[6-Methyl-4-oxo-2-[4-(trifluoromethyl)-1-piperidyl]chromen-8-yl]ethylamino]benzoic acid] |
| 5.00 to 5.30 | 6.00 to 6.30 |  | Cc1cc(C(C)Nc2ccccc2C(=O)O)c2oc(N3CCCC4(CCOCC4)C3)cc(=O)c2c1 (stereo not shown) [Example 76, 2-[1-[6-Methyl-2-(9-oxa-2-azaspiro[5.5]undecan-2-yl)-4-oxo-chromen-8-yl]ethylamino]benzoic acid] |
| 5.30 to 6.00 | 5.30 to 6.00 |  | Cc1cc(C(C)Nc2ccccc2C(=O)O)c2oc(N3CCOC(c4ccc(S(C)(=O)=O)cc4)C3)cc(=O)c2c1 (stereo not shown) [Example 85, 2-[1-[6-Methyl-2-[2-(4-methylsulfonylphenyl)morpholin-4-yl]-4-oxo-chromen-8-yl]ethylamino]benzoic acid] |
| 5.00 to 5.30 | 5.30 to 6.00 |  | Cc1cc(C(C)Nc2ccccc2C(=O)O)c2oc(N3CCC4(CC3)Cn3nc(C(=O)N(C)C)cc3CO4)cc(=O)c2c1 (stereo not shown) [Example 107, 2-[1-[2-[2-(Dimethylcarbamoyl)spiro[4,7-dihydropyrazolo[5,1-c][1,4]oxazine-6,4′-piperidine]-1′-yl]-6-methyl-4-oxo-chromen-8-yl]ethylamino]benzoic acid] |
| 5.30 to 6.00 | 6.00 to 6.30 |  | Cc1cc(C(C)Nc2ccccc2C(=O)O)c2oc(N3CCCOCC3)cc(=O)c2c1 (stereo not shown) [Example 151, 2-[1-[6-Methyl-2-(1,4-oxazepan-4-yl)-4-oxo-chromen-8-yl]ethylamino]benzoic acid] |
| 5.30 to 6.00 | 5.30 to 6.00 |  | Cc1cc([C@@H](C)Nc2ccnnc2C(=O)O)c2oc(N3CCC(C)(C)CC3)cc(=O)c2c1 [Example 251] |
| 5.30 to 6.00 | 6.00 to 6.30 |  | Cc1cc(C(C)Nc2ccc(Cl)nc2C(=O)O)c2oc(N3Cc4ccccc4C3)cc(=O)c2c1 (stereo not shown) [Example 296, 6-Chloro-3-[1-(2-isoindolin-2-yl-6-methyl-4-oxo-chromen-8-yl)ethylamino]pyridine-2-carboxylic acid] |
| 6.00 to 6.30 | 6.00 to 6.30 |  | Cc1cc(C(C)Nc2ccccc2C(=O)O)c2oc(N3CCC(C)(C)CC3)c(C#N)c(=O)c2c1 (stereo not shown) [Example 392, 2-[1-[3-Cyano-2-(4,4-dimethyl-1-piperidyl)-6-methyl-4-oxo-chromen-8-yl]ethylamino]benzoic acid 2,2,2-trifluoroacetic acid] |

| Compound | pIC50 [1] | pIC50 [2] | pEC50 (T-47D) |
| --- | --- | --- | --- |
| Cc1cc(C(C)Nc2ccccc2C(=O)O)c2oc(N3C4CCCC3C4)cc(=O)c2c1 (single isomer, unassigned; isomer 2) [Example 425, 2-[1-[2-(6-Azabicyclo[3.1.1]heptan-6-yl)-6-methyl-4-oxo-chromen-8-yl]ethylamino]benzoic acid, Isomer 2] | 5.30 to 6.00 | > 6.30 |  |
